The source of these data is patent publication US8148070B2, “Genetic polymorphisms associated with coronary events and drug response, methods of detection and uses thereof” (Celera Corporation, priority 2007, dated 2012).

The experiment relates to PROVE-IT patients. Description: PROVE-IT (PROVE IT-TIMI 22) genetic study: high-dose atorvastatin vs standard-dose pravastatin, death or major cardiovascular events by KIF6 719Arg carrier status. The class given is in vivo, human. The procedure:
Patients were followed for 18 to 36 months, with an average follow-up of 24 months.
Of the 1,724 patients who met the criteria listed above, 1344 (78.0%) were male. […] This study was approved by institutional review boards of the Brigham and Women's Hospital and all participating centers.
KIF6 genotypes were determined using allele—specific real-time PCR as previously described. Cox proportional hazard models (Wald tests) were used to assess the effect of atorvastatin-treatment on incident CHD in the KIF6 719Arg carriers and noncarriers. Continuous variables tested were age, baseline LDL-C, and baseline HDL-C levels. Categorical variables tested were smoking (current versus non-current), hypertension, and baseline diabetes. All reported p values are two-sided.

Regarding `CC(C)c1c(C(=O)Nc2ccccc2)c(-c2ccccc2)c(-c2ccc(F)cc2)n1CC[C@@H](O)C[C@@H](O)CC(=O)O` [Atorvastatin, atorvastatin], the “HR, Model 1 (CHD, atorvastatin vs pravastatin)” value (ArgArg + ArgTrp (carriers), adjusted for sex, age, smoking, hypertension, diabetes, LDL-C, HDL-C, antibiotic) is 0.56 and the “HR, Model 1 (CHD, atorvastatin vs pravastatin)” value (TrpTrp (noncarriers), adjusted) is 0.97. For the same compound, the “HR, Unadjusted (CHD, atorvastatin vs pravastatin)” value came to 0.57 (ArgArg + ArgTrp, 80 mg atorvastatin per day vs 40 mg pravastatin per day (ref)) and 0.99 (TrpTrp (noncarriers), pravastatin = ref). Besides, the “On-trial CHD” value runs as follows: (ArgArg + ArgTrp, totals 509 (atorvastatin), 502 (pravastatin)) 76 Number of patients; (TrpTrp, totals 359 (atorvastatin), 352 (pravastatin)) 81 Number of patients. For the same compound, the “unadjusted hazard ratio at 30 days” value (carriers of the KIF6 719Arg allele, 30 days after randomization, atorvastatin vs pravastatin) amounted to 0.18. In addition, where the note is “carriers, high-dose atorvastatin vs standard-dose pravastatin”, the “reduction of relative risk of coronary events” value came to 44%. Further, the “benefit of intensive therapy compared with moderate therapy” value (noncarriers, at any time point) is on record as “no significant benefit”.
